From paper PMC4519324, “Substrate Specificity, Inhibitor Selectivity and Structure-Function Relationships of Aldo-Keto Reductase 1B15: A Novel Human Retinaldehyde Reductase” (PLoS ONE, 2015)
Read-outs that look alike come from different tables or passages of the source.

Experiments:
AKR1B10 [1] = molecular target: T1, AKR1B10 (Homo sapiens, UniProt O60218); test: Spectrophotometric activity assay (NADPH decrease at 340 nm), substrate kinetics; type: biochemical; conditions: for k cat / Km: substrate, spectrophotometric; for Km: read-out: Km; for activity class: at saturating concentration of substrate for AKR1B15
T1 construct: made in house

AKR1B15 [2] = molecular target: T2, AKR1B15 (Homo sapiens, UniProt C9JRZ8); test: as above; type: biochemical; conditions: for Km / k cat: substrate, spectrophotometric, 0.2 mM NADPH; for Km: 100 mM sodium phosphate pH 7.0, 25°C, <1 values only approximate; for k cat: pH 7.0, 25°C
T2 construct: made in house; host or cells: E. coli BL21(DE3), with or without chaperone plasmids pBB540/pBB542

AKR1B1 [3] = molecular target: T3, AKR1B1 (Homo sapiens, UniProt P15121); conditions: substrate, cited from earlier work; for Km: read-out: Km
T3 construct: made in house

AKR1B10 [4] = molecular target: T1, AKR1B10; conditions: substrate; cited from earlier work
AKR1B1 [5] = molecular target: T3, AKR1B1; test: Spectrophotometric activity assay (NADPH decrease at 340 nm), substrate kinetics; type: biochemical; conditions: for activity class: at saturating concentration of substrate for AKR1B15
Experimental: (§1) Activities were determined in 100 mM sodium phosphate, pH 7.0, at 25°C, using 0.2 mM NADPH in 0.2-cm path length cuvettes, with freshly prepared substrate solutions. One unit of activity is defined as the amount of enzyme required to transform 1 μmol of substrate per min at 25°C.
(§2) All compounds tested as inhibitors were dissolved in DMSO and assayed in a final concentration of 0.1% (v/v) DMSO using 6 mM D,L-glyceraldehyde as a substrate. Kinetic constant and IC50 (compound concentration that inhibits enzymatic activity by 50%) values were calculated by fitting the initial rates to the appropriate equation using Grafit 5.0 (Eritacus Software) and values were given as the mean ± standard error of three experiments. Standard error values were less than 20% of the mean values.

AKR1B1 [6] = molecular target: T3, AKR1B1; parameters: method as in PMID 18087047; conditions: HPLC-based method; cited from earlier work
AKR1B10 [7] = molecular target: T1, AKR1B10; parameters: method as in PMID 18087047; conditions: HPLC-based method; cited from earlier work
AKR1B15 [8] = molecular target: T2, AKR1B15; test: HPLC enzymatic activity assay with retinaldehyde isomers; type: biochemical; conditions: HPLC-based method; for k cat: pH 7.4
Experimental: Activity assays with retinoids were carried out using an HPLC-based methodology. Briefly, retinaldehyde isomers were solubilized using glass tubes by a 10-min sonication at molar ratio 1:1 with fatty acid-free bovine serum albumin in 90 mM potassium phosphate, 40 mM potassium chloride, pH 7.4. The actual amount of solubilized retinoid was determined based on the corresponding molar absorption coefficient in aqueous solutions at the appropriate wavelength: ε400 = 29,500 M^−1·cm^−1 for all-trans-retinaldehyde and ε367 = 26,700 M^−1·cm^−1 for 9-cis-retinaldehyde. For retinol isomers, which were used as standards of the reaction product, their concentration was determined in hexane using ε325 = 51,770 M^−1·cm^−1 for all-trans-retinol and ε325 = 43,765 M^−1·cm^−1 for 9-cis-retinol. The reactions were started by the addition of cofactor and carried out for 15 min at 37°C in a final volume of 0.5 mL. With the aim to measure the steady-state enzymatic activity, the concentration of enzyme was kept from 25- to 100-fold lower than that of the substrate for all the enzymatic assays. The reactions were stopped by the addition of 1 mL of cold methanol and after two rounds of extraction with hexane, retinoids were analyzed by HPLC as previously described. All retinoid manipulations were performed under dim light.
as §2

AKR1B15 [9] = molecular target: T2, AKR1B15; test: Inhibition screening with D,L-glyceraldehyde as substrate; type: biochemical; conditions: for IC50: 6 mM D,L-glyceraldehyde as substrate, 0.1% DMSO
Experimental: as §1, §2

T1 sequence (O60218 whole entry): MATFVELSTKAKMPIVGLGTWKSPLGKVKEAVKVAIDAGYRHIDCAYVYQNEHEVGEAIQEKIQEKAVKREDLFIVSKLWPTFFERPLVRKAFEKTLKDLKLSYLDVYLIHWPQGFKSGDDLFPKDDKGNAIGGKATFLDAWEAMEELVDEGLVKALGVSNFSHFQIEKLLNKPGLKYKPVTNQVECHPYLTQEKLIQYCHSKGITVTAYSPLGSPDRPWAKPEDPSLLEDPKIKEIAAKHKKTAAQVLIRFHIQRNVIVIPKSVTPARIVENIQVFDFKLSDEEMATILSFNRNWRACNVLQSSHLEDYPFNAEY
T2 sequence (C9JRZ8 whole entry): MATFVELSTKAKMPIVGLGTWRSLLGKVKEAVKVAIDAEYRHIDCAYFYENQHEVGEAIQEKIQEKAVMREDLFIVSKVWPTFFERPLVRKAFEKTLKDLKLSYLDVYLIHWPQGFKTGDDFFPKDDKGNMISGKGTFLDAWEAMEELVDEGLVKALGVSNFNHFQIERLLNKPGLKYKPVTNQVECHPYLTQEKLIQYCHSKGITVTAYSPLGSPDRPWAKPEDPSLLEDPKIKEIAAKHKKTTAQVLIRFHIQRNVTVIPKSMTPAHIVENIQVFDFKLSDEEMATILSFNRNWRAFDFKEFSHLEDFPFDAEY

| SMILES | Km (AKR1B15 [2]; read-out: Km) [µM] | k cat (AKR1B15 [2]) [min⁻¹] | Km (AKR1B1 [3]) [µM] | k cat (min^−1) (AKR1B1 [3]) | Km (AKR1B10 [4]) [µM] | k cat (min^−1) (AKR1B10 [4]) | also measured |
| --- | --- | --- | --- | --- | --- | --- | --- |
| CC(C)=CCCC(C)=CC=O (mixture of isomers) [citral] | 1.5 | 5.5 | – | – | – | – | k cat (AKR1B10 [1]): 35 min⁻¹; Km (AKR1B10 [1]): 4.5 µM |
| O=CC(O)CO (racemic) [D,L-glyceraldehyde] | 880 | 10.7 | 50 | 31 ^a min^−1 | 6000 | 35 ^a min^−1 | – |
| CC(=O)C(C)=O [2,3-butanedione] | < 1 | 10.6 | 110 | 23 ^d min^−1 | 540 | 260 ^d min^−1 | – |
| CCCC(=O)C(C)=O [2,3-hexanedione] | < 1 | 9.5 | 17 | 49 ^b min^−1 | 51 | 79 ^b min^−1 | – |
| CC(=O)CC(C)=O [2,4-pentanedione] | 40 | 2.2 | – | – | – | – | k cat (AKR1B10 [1]): 8.6 min⁻¹; Km (AKR1B10 [1]): 58900 µM |
| CCC(C)=O [2-butanone] | 780 | 10.5 | – | – | – | – | activity class (AKR1B1 [5]): LA (LA, low activity (≤ 10 mU/mg) was detected at saturating concentration of substrate for AKR1B15); activity class (AKR1B10 [1]): LA (LA, low activity (≤ 10 mU/mg) was detected at saturating concentration of substrate for AKR1B15) |
| O=C1C=CCCC1 [2-cyclohexen-1-one] | 365 | 4.41 | – | – | – | – | activity class (AKR1B1 [5]): LA (LA, low activity (≤ 10 mU/mg) was detected at saturating concentration of substrate for AKR1B15); activity class (AKR1B10 [1]): LA (LA, low activity (≤ 10 mU/mg) was detected at saturating concentration of substrate for AKR1B15) |
| CCC(=O)CC(=O)CC [3,5-heptanedione] | 1300 | 5.3 | – | – | – | – | Km (AKR1B10 [1]): > 50000 µM |
| C=CC(C)=O [3-buten-2-one] | 21.3 | 8.2 | – | – | – | – | activity class (AKR1B1 [5]): LA (LA, low activity (≤ 10 mU/mg) was detected at saturating concentration of substrate for AKR1B15); activity class (AKR1B10 [1]): LA (LA, low activity (≤ 10 mU/mg) was detected at saturating concentration of substrate for AKR1B15) |
| CCCCCC=CC(C)=O [3-nonen-2-one] | 1.7 | 6.76 | – | – | – | – | activity class (AKR1B1 [5]): LA (LA, low activity (≤ 10 mU/mg) was detected at saturating concentration of substrate for AKR1B15); activity class (AKR1B10 [1]): LA (LA, low activity (≤ 10 mU/mg) was detected at saturating concentration of substrate for AKR1B15) |
| CCCCCC(O)C=CC=O (centres unmarked) [4-hydroxy-2-nonenal] | 2.2 | 5.2 | 716 | 50 ^c min^−1 | 31 | 121 ^c min^−1 | – |
| CC1=C(/C=C/C(C)=C\C=C\C(C)=C\C=O)C(C)(C)CCC1 [9-cis-retinaldehyde] | – | – | – | – | – | – | Km (AKR1B1 [6]): 400 ± 100 nM; k cat (AKR1B1 [6]): 0.7 ± 0.2 min⁻¹; Km (AKR1B10 [7]): 700 ± 100 nM; k cat (AKR1B10 [7]): 0.9 ± 0.1 min⁻¹; k cat (AKR1B15 [8]; 37°C): 3.8 ± 0.2 min⁻¹; Km (AKR1B15 [8]; 37°C, pH 7.4, read-out: Km): 160 ± 30 nM; Km (AKR1B15 [8]; read-out: Km value): 160 nM |
| CC1=C(/C=C/C(C)=C/C=C/C(C)=C/C=O)C(C)(C)CCC1 [All-trans-retinaldehyde] | – | – | – | – | – | – | Km (AKR1B1 [6]): 1100 ± 100 nM; k cat (AKR1B1 [6]): 0.9 ± 0.1 min⁻¹; Km (AKR1B10 [7]): 600 ± 100 nM; k cat (AKR1B10 [7]): 27 ± 1 min⁻¹; k cat (AKR1B15 [8]; 37°C): 5.4 ± 0.5 min⁻¹; Km (AKR1B15 [8]; 37°C, pH 7.4, read-out: Km): 1000 ± 300 nM |
| CC(/C=C1\SC(=S)N(CC(=O)O)C1=O)=C\c1ccccc1 [Epalrestat] | – | – | – | – | – | – | IC50 (AKR1B15 [9]): > 50 µM |
| NC(=O)C1=CN([C@@H]2O[C@H](COP(=O)(O)OP(=O)(O)OC[C@H]3O[C@@H](n4cnc5c(N)ncnc54)[C@H](O)[C@@H]3O)[C@@H](O)[C@H]2O)C=CC1 [NADH] | – | – | – | – | – | – | enzymatic activity relative to that with NADPH (AKR1B15 [2]; 0.2 mM NADH): less than 5% |
| CC1(C)CC[C@]2(C(=O)O)CC[C@]3(C)C(=CC[C@@H]4[C@@]5(C)CC[C@H](O)C(C)(C)[C@@H]5CC[C@]43C)[C@@H]2C1 [Oleanolic acid] | – | – | – | – | – | – | IC50 (AKR1B15 [9]): > 100 µM |
| CCCCCCCCCCCC(=O)N(C)CC(=O)[O-].[Na+] [Sarkosyl, sodium N-lauroylsarcosinate] | – | – | – | – | – | – | inhibition model (AKR1B15 [9]; data not shown): non-competitive |
| O=C1NC(=O)[C@@]2(CCOc3ccc(F)cc32)N1 [Sorbinil] | – | – | – | – | – | – | IC50 (AKR1B15 [9]): > 100 µM |
| C=CC=O [acrolein] | 36 | 8.8 | 884 | 11 ^c min^−1 | 110 | 116 ^c min^−1 | – |
| O=Cc1ccccc1 [benzaldehyde] | – | 12.1 | 21 | 91 ^b min^−1 | 9.7 | 104 ^b min^−1 | Km (AKR1B15 [2]): < 1 µM |
| O=C/C=C/c1ccccc1 [cinnamaldehyde] | < 1 | 13.3 | – | – | – | – | Km (AKR1B1 [5]; substrate, spectrophotometric): 31 µM; k cat (AKR1B1 [5]; substrate, spectrophotometric): 29 min⁻¹; k cat (AKR1B10 [1]): 240 min⁻¹; Km (AKR1B10 [1]): 34.7 µM |
| CC(C)=CCCC(C)=CCCC(C)=CC=O [farnesal] | < 1 | 4.8 | 37 | 27 ^b min^−1 | 2.3 | 30 ^b min^−1 | – |
| OC[C@H]1OC(O)[C@H](O)[C@@H](O)[C@@H]1O (some centres unmarked) [glucose] | – | – | – | – | – | – | rate of reduction (AKR1B1 [5]; 200 mM glucose): 500 mU/mg; rate of reduction (AKR1B15 [2]; 200 mM glucose): 12 mU/mg |
| CCCCCC=O [hexanal] | 3.1 | 7.3 | 5 | 28 ^b min^−1 | 112 | 142 ^b min^−1 | – |
| O=Cc1cccnc1 [pyridine-3-aldehyde] | 2.9 | 9 | 10 | 61 ^b min^−1 | 13 | 150 ^b min^−1 | – |
| CCC/C=C/C=O [trans-2-hexenal] | 5 | 11.3 | 9 | 16 ^b min^−1 | 28 | 49 ^b min^−1 | – |
